In patent US10519111B2, “UV absorbing compounds, compositions comprising same and uses thereof” (CORAL SUNSCREEN PTY LTD, priority 2013, dated 2019):

Tests used:
Photostability = type: physicochemical; settings: Table 13B
[1] = Critical wavelength (λcrit), approximate in-house measurement; type: physicochemical
Excerpt: As the precise test for critical wavelength was unable to be replicated exactly by the inventors due to the need for specialist equipment and a specific calibration of the spectrophotometer, these values are only approximate to a degree. […] This represents a highly useful result and so, compounds based around this benzoyl substitution pattern shown, are especially preferred.

[2] = UV absorption properties (λmax, molar extinction coefficient ε, efficiency E 1%, 1 cm); type: physicochemical; settings: for shoulder in the λmax column: Tables 5, 10, 13B
[3] = Table 13B, miscellaneous compounds
[4] = Table 13B, values in order of the λmax values
[5] = Table 13B, values in order of the λmax values, in M-1 cm-1
[6] = values in order of the λmax values
[7] = Table 11, compounds from mixed anhydrides
[8] = Table 12, 2-substituted compounds

Row | SMILES | Photostability (%) (Photostability) | λcrit ([1]; Table 13B) [nm] | λmax [2, 3] [nm] | E (1%, 1 cm) [2, 4] | ε [2, 5] | other results
1 | CN1C=C(C(=O)c2ccc(N(C)CCCCCCN(C)c3ccc(C(=O)C4=CN(C(C)(C)C)CCC4(C)C)cc3)cc2)C(C)(C)CC1 | 22 | 364 |  |  |  | 
2 | CC1(C)CCN(C(C)(C)C)C=C1C(=O)/C=C/c1cccc(/C=C/C(=O)C2=CN(C(C)(C)C)CCC2(C)C)c1 | 95 | 386 | 360 | 395 | 20388 | 
3 | CC1(C)CCN(C(C)(C)C)C=C1C(=O)c1ccc(F)cc1 | 75 | 346 | 316 | 655 | 20919 | 
4 | CC1(C)CCN(C(C)(C)C)C=C1C(=O)/C=C/c1ccc(C(=O)C2=CN(C(C)(C)C)CCC2(C)C)cc1 | 77 | 385 | 360 | 564 | 27646 | 
5 | CCCCC(CC)CN(c1ccc(C(=O)C2=CN(C(C)(C)C)CCC2(C)C)cc1)c1ccc(C(=O)C2=CN(C(C)(C)C)CCC2(C)C)cc1 (stereo not shown) |  | 369 | 316 | 624 | 41598 | Photostability (%) + Octo (Photostability; with octocrylene (+ Octo)): 90%; shoulder in the λmax column [2]: ~340 nm
6 | CCCCC(CC)COC(=O)c1cc(/C=C/C(=O)C2=CN(C(C)(C)C)CCC2(C)C)ccc1/C=C/C(=O)C1=CN(C(C)(C)C)CCC1(C)C (stereo not shown) | 2 | 388 | 378 | 460 | 30963 | 
7 | CC(C)CN1C=C(C(=O)C(C)(C)C)C(C)(C)CC1 | 60 | 327 | 309 | 1137 | 28554 | 
8 | CCCCC(CC)COC(=O)CCC(=O)C1=CN(c2ccc(N3C=C(C(=O)CCC(=O)OCC(CC)CCCC)C(C)(C)CC3)cc2)CCC1(C)C (stereo not shown) | 52 | 379 | 359 | 628 | 45301 | 
9 | CC1(C)CCN(c2ccc(N3C=C(C(=O)CCC(F)(F)F)C(C)(C)CC3)cc2)C=C1C(=O)CCC(F)(F)F | 54 | 379 | 358 | 1090 | 59296 | 
10 | Cc1ccc(NC(=O)C2=CN(C(C)(C)CC(C)(C)C)CCC2(C)C)cc1NC(=O)C1=CN(C(C)(C)CC(C)(C)C)CCC1(C)C | 55 | 328 | 311 | 990 | 61479 | 
11 | CCCCC(CC)CN(c1ccc(C(=O)C2=CN(C(C)(C)C)CCC2(C)C)cc1)c1ccc(C(=O)C2=CN(C(C)(C)C)CCC2(C)C)cc1.Cl (stereo not shown) | 39 | 370 | 316 | 653 | 45910 | 
12 | CC1(C)CCN(C(C)(C)C)C=C1C(=O)c1ccccc1 | 76 | 342 | 315 | 939 | 25447 | 
13 | CC1(C)CCN(C(C)(C)C)C=C1C(=O)c1c(F)cccc1F | 85 | 331 | 312 | 1162 | 35700 | 
14 | CC1(C)CCN(C(C)(C)C)C=C1C(=O)c1c(F)c(F)c(F)c(F)c1F | 100 | 333 | 314 | 951 | 34340 | 
15 | CC1(C)CCN(C(C)(C)C)C=C1C(=O)c1ccc(C(F)(F)F)cc1 | 76 | 349 | 315 | 782 | 26531 | 
16 | CCOC(=O)C(=O)C1=CN(C(C)(C)C)CCC1(C)C | 50 | 344 | 311 | 998 | 26668 | 
17 | CCOC(=O)C(=O)C1=CN(c2ccccc2)CCC1(C)C | 68 | 362 | 332 | 1210 | 34743 | 
18 | CC1(C)CCN(C(C)(C)C)C=C1C(=O)c1ccccn1 | 22 | 360 | 317 | 635 | 17272 | 
19 | Cc1cc(C)c(C(=O)C2=CN(C(C)(C)C)CCC2(C)C)c(C)c1 | 33 | 326 | 311 | 1084 | 33953 | 
20 | CN(C)c1ccc(C(=O)C2=CN(C(C)(C)C)CCC2(C)C)cc1 [Compound 157, (1-(tert-butyl)-4,4-dimethyl-1,4,5,6-tetrahydropyridine-3-yl)(4-(dimethylamino)phenyl)methanone] |  |  |  |  |  | melting point: 162 to 163 °C; UV λmax [2]: 333 nm; ε (molar extinction coefficient) [2, 6]: 24966 M⁻¹ cm⁻¹
21 | CC(C)(C)Oc1ccc(C(=O)C2=CN(C(C)(C)C)CCC2(C)C)cc1 [Compound 158, (4-(tert-butoxy)phenyl)(1-(tert-butyl)-4,4-dimethyl-1,4,5,6-tetrahydropyridin-3-yl)methanone] |  |  |  |  |  | melting point: 98 to 101 °C; UV λmax [2]: 317 nm; ε (molar extinction coefficient) [2, 6]: 32556 M⁻¹ cm⁻¹
22 | Cc1nn(C)c(N2C=CC(C)(C)C=C2)c1C(=O)C(F)(F)F [drawing 153] |  |  |  |  |  | λcrit ([1]; Table 10): 363 nm; E (1%, 1 cm) ([2]; Table 10): 335; λmax ([2]; Table 10, bis and mono enamine compounds): 253 nm; ε ([2]; Table 10, in M-1 cm-1): 10016; shoulder in the λmax column [2]: 315 nm
23 | CC1(C)CCN(c2ccc(C(C)(C)C)cc2)C=C1C(=O)C(c1ccccc1)c1ccccc1 [drawing 157] |  |  |  |  |  | λcrit ([1]; Table 11): 356 nm; E (1%, 1 cm) ([2]; Table 11): 407; λmax [2, 7]: 337 nm; ε ([2]; Table 11, in M-1 cm-1): 17793
24 | CC1(C)CCN(c2ccc(C(C)(C)C)cc2)C=C1C(=O)C1c2ccccc2-c2ccccc21 [drawing 158] |  |  |  |  |  | λcrit ([1]; Table 11): 358 nm; E (1%, 1 cm) ([2]; Table 11): 707; λmax [2, 7]: 339 nm; ε ([2]; Table 11, in M-1 cm-1): 30745
25 | CC1(C)CCN(c2ccc(C(C)(C)C)cc2)C=C1C(OC(=O)C1c2ccccc2-c2ccccc21)=C1c2ccccc2-c2ccccc21 [drawing 159] |  |  |  |  |  | λcrit ([1]; Table 11): 387 nm; E (1%, 1 cm) ([2]; Table 11): 105; λmax [2, 7]: 407 nm; ε ([2]; Table 11, in M-1 cm-1): 6635
26 | CCC(=O)C1=C(c2ccccc2)N(CC(C)C)CCC1(C)C [drawing 163] |  |  |  |  |  | λcrit ([1]; Table 12): 365 nm; E (1%, 1 cm) ([2]; Table 12): 268; ε ([2]; Table 12): 8000 M⁻¹ cm⁻¹; λmax [2, 8]: 338 nm
27 | CCC(=O)O/C(=C\C1=CC(C)(C)CCN1CC(C)C)CC [drawing 165] |  |  |  |  |  | λcrit ([1]; Table 12): 344 nm; E (1%, 1 cm) ([2]; Table 12): 683; ε ([2]; Table 12): 20000 M⁻¹ cm⁻¹; λmax [2, 8]: 323 nm
28 | CCC(=O)C1=CN(CC(C)C)C=CC1(C)C [drawing 170] |  |  |  |  |  | λcrit ([1]; Table 13A): 386 nm; E (1%, 1 cm) ([2]; Table 13A): 362; ε ([2]; Table 13A): 8800 M⁻¹ cm⁻¹; λmax ([2]; Table 13A, miscellaneous compounds): 366 nm
29 | CC(C)=CCCC(C)CC(=O)C1=CN(c2ccc(N3C=C(C(=O)CC(C)CCC=C(C)C)C(C)(C)CC3)cc2)CCC1(C)C (stereo not shown) [drawing 212] |  | 379 | 359 | 690 | 41400 | 
30 | CC(C)=CCCC(C)CC(=O)C1=CN(c2ccc(N3C=C(C(=O)CC(C)CCC=C(C)C)C(C)(C)CC3)cc2)CCC1(C)C (stereo not shown) [drawing 213] |  | 378 | 358 | 550 | 33000 | 
